pIC50: −log10 of the molar value.
Tests used:
REH = experiment: cells; assay type: functional, cell-based, Homo sapiens; details: Homo sapiens, REH
Description: SANGER: Inhibition of human REH cell growth in a cell viability assay.

PC-14 = experiment: cells; assay type: functional, cell-based, Homo sapiens; details: Homo sapiens, PC-14
Description: SANGER: Inhibition of human PC-14 cell growth in a cell viability assay.

Calu-3 = experiment: cells; assay type: functional, cell-based, Homo sapiens; details: Homo sapiens, Calu-3
Description: SANGER: Inhibition of human Calu-3 cell growth in a cell viability assay.

NCI-H1437 = experiment: cells; assay type: functional, cell-based, Homo sapiens; details: Homo sapiens, NCI-H1437
Description: SANGER: Inhibition of human NCI-H1437 cell growth in a cell viability assay.

COLO-680N = experiment: cells; assay type: functional, cell-based, Homo sapiens; details: Homo sapiens, COLO-680N
Description: SANGER: Inhibition of human COLO-680N cell growth in a cell viability assay.

DMS-273 = experiment: cells; assay type: functional, cell-based, Homo sapiens; details: Homo sapiens, DMS-273
Description: SANGER: Inhibition of human DMS-273 cell growth in a cell viability assay.

CWR22R = experiment: cells; assay type: functional, cell-based, Homo sapiens; details: Homo sapiens, 22Rv1
Description: SANGER: Inhibition of human 22RV1 cell growth in a cell viability assay.

HCT-116 = experiment: cells; assay type: functional, cell-based, Homo sapiens; details: Homo sapiens, HCT-116
Description: SANGER: Inhibition of human HCT-116 cell growth in a cell viability assay.

NCI-H520 = experiment: cells; assay type: functional, cell-based, Homo sapiens; details: Homo sapiens, NCI-H520
Description: SANGER: Inhibition of human NCI-H520 cell growth in a cell viability assay.

TE-441-T = experiment: cells; assay type: functional, cell-based, Homo sapiens; details: Homo sapiens, TE-441-T
Description: SANGER: Inhibition of human TE-441-T cell growth in a cell viability assay.

DBTRG-05MG = experiment: cells; assay type: functional, cell-based, Homo sapiens; details: Homo sapiens, DBTRG-05MG
Description: SANGER: Inhibition of human DBTRG-05MG cell growth in a cell viability assay.

C32 = experiment: cells; assay type: functional, cell-based, Homo sapiens; details: Homo sapiens, C32
Description: SANGER: Inhibition of human C32 cell growth in a cell viability assay.

DK-MG = experiment: cells; assay type: functional, cell-based, Homo sapiens; details: Homo sapiens, DK-MG
Description: SANGER: Inhibition of human DK-MG cell growth in a cell viability assay.

OE19 = experiment: cells; assay type: functional, cell-based, Homo sapiens; details: Homo sapiens, OE19
Description: SANGER: Inhibition of human OE19 cell growth in a cell viability assay.

CAL-51 = experiment: cells; assay type: functional, cell-based, Homo sapiens; details: Homo sapiens, CAL-51
Description: SANGER: Inhibition of human CAL-51 cell growth in a cell viability assay.

BHY = experiment: cells; assay type: functional, cell-based, Homo sapiens; details: Homo sapiens, BHY
Description: SANGER: Inhibition of human BHY cell growth in a cell viability assay.

NCI-H28 = experiment: cells; assay type: functional, cell-based, Homo sapiens; details: Homo sapiens, NCI-H28
Description: SANGER: Inhibition of human NCI-H28 cell growth in a cell viability assay.

EFO-21 = experiment: cells; assay type: functional, cell-based, Homo sapiens; details: Homo sapiens, EFO-21
Description: SANGER: Inhibition of human EFO-21 cell growth in a cell viability assay.

ME-180 = experiment: cells; assay type: functional, cell-based, Homo sapiens; details: Homo sapiens, ME-180
Description: SANGER: Inhibition of human ME-180 cell growth in a cell viability assay.

HCC1569 = experiment: cells; assay type: functional, cell-based, Homo sapiens; details: Homo sapiens, HCC1569
Description: SANGER: Inhibition of human HCC1569 cell growth in a cell viability assay.

DG-75 = experiment: cells; assay type: functional, cell-based, Homo sapiens; details: Homo sapiens, DG-75
Description: SANGER: Inhibition of human DG-75 cell growth in a cell viability assay.

MDA-MB-175-VII = experiment: cells; assay type: functional, cell-based, Homo sapiens; details: Homo sapiens, MDA-MB-175-VII
Panc1005 = experiment: cells; assay type: functional, cell-based, Homo sapiens; details: Homo sapiens, Panc1005
Description: SANGER: Inhibition of human PANC-10-05 cell growth in a cell viability assay.

CMK = experiment: cells; assay type: functional, cell-based, Homo sapiens; details: Homo sapiens, CMK
Description: SANGER: Inhibition of human CMK cell growth in a cell viability assay.

NCI-H1522 = experiment: cells; assay type: functional, cell-based, Homo sapiens; details: Homo sapiens, NCI-H1522
Description: SANGER: Inhibition of human NCI-H1522 cell growth in a cell viability assay.

PF-382 = experiment: cells; assay type: functional, cell-based, Homo sapiens; details: Homo sapiens, PF-382
Description: SANGER: Inhibition of human PF-382 cell growth in a cell viability assay.

VMRC-RCZ = experiment: cells; assay type: functional, cell-based, Homo sapiens; details: Homo sapiens, VMRC-RCZ
Description: SANGER: Inhibition of human VMRC-RCZ cell growth in a cell viability assay.

RPMI-2650 = experiment: cells; assay type: functional, cell-based, Homo sapiens; details: Homo sapiens, RPMI-2650
Description: SANGER: Inhibition of human RPMI-2650 cell growth in a cell viability assay.

BC1 cell line = experiment: SANGER: Inhibition of human BC-1 cell growth in a cell viability assay.; assay type: functional, cell-based; details: Homo sapiens, BC1
M14 = experiment: cells; assay type: functional, cell-based, Homo sapiens; details: Homo sapiens, M14
Description: SANGER: Inhibition of human M14 cell growth in a cell viability assay.

ChaGo-K-1 = experiment: cells; assay type: functional, cell-based, Homo sapiens; details: Homo sapiens, ChaGo-K-1
Description: SANGER: Inhibition of human ChaGo-K-1 cell growth in a cell viability assay.

MIA PaCa-2 = experiment: cells; assay type: functional, cell-based, Homo sapiens; details: Homo sapiens, MIA PaCa-2
Description: SANGER: Inhibition of human MIA-PaCa-2 cell growth in a cell viability assay.

CAL-72 = experiment: cells; assay type: functional, cell-based, Homo sapiens; details: Homo sapiens, CAL-72
Description: SANGER: Inhibition of human CAL-72 cell growth in a cell viability assay.

UACC-812 = experiment: cells; assay type: functional, cell-based, Homo sapiens; details: Homo sapiens, UACC-812
Description: SANGER: Inhibition of human UACC-812 cell growth in a cell viability assay.

KYSE-70 cell line = experiment: cells; assay type: functional, cell-based, Homo sapiens; details: Homo sapiens, KYSE-70
Description: SANGER: Inhibition of human KYSE-70 cell growth in a cell viability assay.

SBC-5 = experiment: cells; assay type: functional, cell-based, Homo sapiens; details: Homo sapiens, SBC-5
Description: SANGER: Inhibition of human SBC-5 cell growth in a cell viability assay.

OVCAR-3 = experiment: cells; assay type: functional, cell-based, Homo sapiens; details: Homo sapiens, OVCAR-3
Description: SANGER: Inhibition of human OVCAR-3 cell growth in a cell viability assay.

COLO-679 = experiment: cells; assay type: functional, cell-based, Homo sapiens; details: Homo sapiens, COLO-679
Description: SANGER: Inhibition of human COLO-679 cell growth in a cell viability assay.

MKN-1 = experiment: cells; assay type: functional, cell-based, Homo sapiens; details: Homo sapiens, MKN-1
Description: SANGER: Inhibition of human MKN1 cell growth in a cell viability assay.

SW1417 = experiment: cells; assay type: functional, cell-based, Homo sapiens; details: Homo sapiens, SW1417
Description: SANGER: Inhibition of human SW1417 cell growth in a cell viability assay.

LOUCY = experiment: cells; assay type: functional, cell-based, Homo sapiens; details: Homo sapiens, LOUCY
Description: SANGER: Inhibition of human LOUCY cell growth in a cell viability assay.

C3A = experiment: cells; assay type: functional, cell-based, Homo sapiens; details: Homo sapiens, C3A
Description: SANGER: Inhibition of human C3A cell growth in a cell viability assay.

NCI-H1694 = experiment: cells; assay type: functional, cell-based, Homo sapiens; details: Homo sapiens, NCI-H1694
Description: SANGER: Inhibition of human NCI-H1694 cell growth in a cell viability assay.

## Oc1ccc2ccccc2c1SSc1c(O)ccc2ccccc12
REH
  pIC50: 5.47
PC-14
  pIC50: < 4.49
Calu-3
  pIC50: < 4.49
NCI-H1437
  pIC50: < 4.49
COLO-680N
  pIC50: < 4.49
DMS-273
  pIC50: < 4.49
CWR22R
  pIC50: < 4.49
HCT-116
  pIC50: < 4.49
NCI-H520
  pIC50: < 4.49
TE-441-T
  pIC50: 4.94
DBTRG-05MG
  pIC50: < 4.49
C32
  pIC50: < 4.49
DK-MG
  pIC50: < 4.49
OE19
  pIC50: < 4.49
CAL-51
  pIC50: 5.45
BHY
  pIC50: 4.61
NCI-H28
  pIC50: < 4.49
EFO-21
  pIC50: < 4.49
ME-180
  pIC50: < 4.49
HCC1569
  pIC50: < 4.49
DG-75
  pIC50: < 4.49
MDA-MB-175-VII
  pIC50: < 4.49
Panc1005
  pIC50: < 4.49
CMK
  pIC50: 5.50
NCI-H1522
  pIC50: < 4.49
PF-382
  pIC50: 5.27
VMRC-RCZ
  pIC50: 4.85
RPMI-2650
  pIC50: < 4.49
BC1 cell line
  pIC50: < 4.49
M14
  pIC50: < 4.49
ChaGo-K-1
  pIC50: < 4.49
MIA PaCa-2
  pIC50: 4.74
CAL-72
  pIC50: 4.61
UACC-812
  pIC50: < 4.49
KYSE-70 cell line
  pIC50: < 4.49
SBC-5
  pIC50: < 4.49
OVCAR-3
  pIC50: < 4.49
COLO-679
  pIC50: 4.54
MKN-1
  pIC50: < 4.49
SW1417
  pIC50: < 4.49
LOUCY
  pIC50: < 4.49
C3A
  pIC50: 4.52
NCI-H1694
  pIC50: < 4.49

## Cc1cc([N+](=O)[O-])ccc1NS(=O)(=O)c1cc(Cl)ccc1Cl
REH
  pIC50: 4.94
PC-14
  pIC50: 4.70
Calu-3
  pIC50: 5.54
NCI-H1437
  pIC50: 5.56
COLO-680N
  pIC50: 4.90
DMS-273
  pIC50: 6.14
CWR22R
  pIC50: 5.58
HCT-116
  pIC50: 5.43
NCI-H520
  pIC50: 5.21
TE-441-T
  pIC50: 5.14
DBTRG-05MG
  pIC50: 5.04
C32
  pIC50: > 6.90
DK-MG
  pIC50: 4.91
OE19
  pIC50: 5.42
CAL-51
  pIC50: 5.56
BHY
  pIC50: 5.35
NCI-H28
  pIC50: 5.07
EFO-21
  pIC50: 4.95
ME-180
  pIC50: 5.55
HCC1569
  pIC50: 5.46
DG-75
  pIC50: < 4.49
MDA-MB-175-VII
  pIC50: 5.70
Panc1005
  pIC50: 5.27
CMK
  pIC50: 5.32
NCI-H1522
  pIC50: < 4.49
PF-382
  pIC50: 5.11
VMRC-RCZ
  pIC50: 5.16
RPMI-2650
  pIC50: 5.70
BC1 cell line
  pIC50: 5.44
M14
  pIC50: < 4.49
ChaGo-K-1
  pIC50: 5.38
MIA PaCa-2
  pIC50: 6.22
CAL-72
  pIC50: < 4.49
UACC-812
  pIC50: < 4.49
KYSE-70 cell line
  pIC50: 6.09
SBC-5
  pIC50: 5.79
OVCAR-3
  pIC50: 5.24
COLO-679
  pIC50: 5.62
MKN-1
  pIC50: 5.38
SW1417
  pIC50: 4.94
LOUCY
  pIC50: 4.70
C3A
  pIC50: 5.65
NCI-H1694
  pIC50: 4.64

## Nc1ccn([C@@H]2O[C@H](CO)[C@@H](O)C2(F)F)c(=O)n1 [GEMCITABINE]
REH
  pIC50: 7.84
PC-14
  pIC50: 6.69
Calu-3
  pIC50: 7.76
NCI-H1437
  pIC50: 8.03
COLO-680N
  pIC50: 7.12
DMS-273
  pIC50: 8.51
CWR22R
  pIC50: 7.02
HCT-116
  pIC50: 7.29
NCI-H520
  pIC50: 7.73
TE-441-T
  pIC50: < 5.99
DBTRG-05MG
  pIC50: 6.91
C32
  pIC50: < 5.99
DK-MG
  pIC50: < 5.99
OE19
  pIC50: 6.15
CAL-51
  pIC50: 6.72
BHY
  pIC50: 8.94
NCI-H28
  pIC50: < 5.99
EFO-21
  pIC50: 7.27
ME-180
  pIC50: 7.41
HCC1569
  pIC50: 6.96
DG-75
  pIC50: < 5.99
MDA-MB-175-VII
  pIC50: < 5.99
Panc1005
  pIC50: 7.81
CMK
  pIC50: > 8.40
NCI-H1522
  pIC50: < 5.99
PF-382
  pIC50: 7.35
VMRC-RCZ
  pIC50: 8.81
RPMI-2650
  pIC50: 7.75
BC1 cell line
  pIC50: 7.47
M14
  pIC50: 6.29
ChaGo-K-1
  pIC50: 6.16
MIA PaCa-2
  pIC50: 7.63
CAL-72
  pIC50: < 5.99
UACC-812
  pIC50: < 5.99
KYSE-70 cell line
  pIC50: 6.52
SBC-5
  pIC50: > 8.40
OVCAR-3
  pIC50: < 5.99
COLO-679
  pIC50: 8.00
MKN-1
  pIC50: 7.11
SW1417
  pIC50: < 5.99
LOUCY
  pIC50: 7.68
C3A
  pIC50: 8.05
NCI-H1694
  pIC50: 7.21
